Earlier results in PubChem BioAssay AID1259409 (Chemical Carcinogenesis Research Information System (CCRIS), 2018).

System: rodent chemically induced tumor inhibition, incidence and multiplicity
Assay: CCRIS tumor inhibitor studies
Conditions: Species: RAT; for tumour outcome (control, treated, inhibition, significance): Carcinogen: DIETHYLNITROSAMINE, 55-18-5, N-METHYL-N-NITROSOUREA, 684-93-5, N-BUTYL-N-(4-HYDROXYBUTYL)NITROSAMINE, 3817-11-6, DIMETHY, Dose [Inhibitor]: 0, Route [Inhibitor]: ORAL, Strain/Sex: F344/MALE, Dose [Carcinogen]: 100 MG/KG BW DEN ONCE FOLLOWED BY 20 MG/KG BW MNU 4 TIMES AND 0.05% BBN IN DRINKING WATER DURING FIRST 2 WK THEN 40 MG/K, Promoter: NONE USED

CCCCCCOc1cc(C)c(O)c(C)c1C
tumour outcome (control, treated, inhibition, significance) (1% IN THE DIET FOR 24 WK BEGINNING 1 DAY POST CARCINOGEN TREATMENT (STUDY DURATION: 28 WK), Target Tissue: Type of Lesion: SMALL INTESTINE: ADENOMA): 33%, 0%, 100%, p<0.05 | tumour outcome (control, treated, inhibition, significance) (1% IN THE DIET FOR 24 WK BEGINNING 1 DAY POST CARCINOGEN TREATMENT (STUDY DURATION: 28 WK), Target Tissue: Type of Lesion: THYROID: CARCINOMA): 7%, 8%, -14%, not significant | tumour outcome (control, treated, inhibition, significance) (1% IN THE DIET FOR 24 WK BEGINNING 1 DAY POST CARCINOGEN TREATMENT (STUDY DURATION: 28 WK), Target Tissue: Type of Lesion: URINARY BLADDER: CARCINOMA): 7%, 0%, 100%, not significant | tumour outcome (control, treated, inhibition, significance) (1% IN THE DIET FOR 24 WK BEGINNING 1 DAY POST CARCINOGEN TREATMENT(STUDY DURATION: 28 WK), Target Tissue: Type of Lesion: SMALL INTESTINE: CARCINOMA): 7%, 0%, 100%, not significant | tumour outcome (control, treated, inhibition, significance) (1% IN THE DIET FOR 30 D BEGINNING 1 D PRIOR TO CARCINOGEN TREATMENT (STUDY DURATION: 28 WK), Target Tissue: Type of Lesion: URINARY BLADDER: PAPILLOMA): 7%, 21%, -200%, not significant | tumour outcome (control, treated, inhibition, significance) (1% IN THE DIET FOR 30 D BEGINNING 1 DAY PRIOR TO CARCINOGEN TREATMENT (STUDY DURATION: 28 WK), Target Tissue: Type of Lesion: LARGE INTESTINE: CARCINOMA): 7%, 0%, 100%, not significant | tumour outcome (control, treated, inhibition, significance) (1% IN THE DIET FOR 30 D BEGINNING 1 DAY PRIOR TO CARCINOGEN TREATMENT (STUDY DURATION: 28 WK), Target Tissue: Type of Lesion: SMALL INTESTINE: ADENOMA): 33%, 14%, 58%, not significant | tumour outcome (control, treated, inhibition, significance) (1% IN THE DIET FOR 30 D BEGINNING 1 DAY PRIOR TO CARCINOGEN TREATMENT (STUDY DURATION: 28 WK), Target Tissue: Type of Lesion: THYROID: CARCINOMA): 7%, 0%, 100%, not significant | tumour outcome (control, treated, inhibition, significance) (1% IN THE DIET FOR 30 D BEGINNING 1 DAY PRIOR TO CARCINOGEN TREATMENT (STUDY DURATION: 28 WK), Target Tissue: Type of Lesion: URINARY BLADDER: CARCINOMA): 7%, 14%, -100%, not significant | outcome (Carcinogen: SUBCUTANEOUS, Dose [Inhibitor]: 1,2-DIMETHYLHYDRAZINE [540-73-8], Route [Inhibitor]: 0.125% IN DIET FOR 32 WK BEGINNING 1 WK POST LAST CARCINOGEN DOSE (STUDY DURATION: 36 WK), Strain/Sex: ORAL, Target Tissue: Type of Lesion: 20/21 (95%), 21/21 (100%), -5%, NOT SIGNIFICANT, Dose [Carcinogen]: 2-AMINO-1-METHYL-6-PHENYLIMIDAZO[4,5-B]PYRIDINE [105650-23-5], Promoter: ORAL): 9.1, 6.2, 32%, not significant
